Assay results reported in patent publication US9474790B2, “Stable, protracted GLP-1/glucagon receptor co-agonists for medical use” (Novo Nordisk A/S, priority 2013, dated 2016).
Numbered stars: 1 amine (or outer) side, 2 acyl side, 3 side chain; on linkers, the order of the positions; unused ones are H or OH. Square brackets hold non-standard residues; d marks the D form. Side chains are listed from the residue outwards. Peptide text beside a SMILES is read from it. * marks the point of attachment. C18 diacid = O=C(O)CCCCCCCCCCCCCCCCC(=O)*; γGlu = O=C(O)[C@H](CCC(=O)[*:2])N[*:1]; AEEA = NCCOCCOCC(=O)O; Ac3c = NC1(C(=O)O)CC1; Aib = CC(C)(N)C(=O)O

What was measured:
[1] = Thioflavin T (ThT) fibrillation assay for physical stability; assay type: physicochemical; conditions: 250 μM in 10 mM HEPES buffer, pH 7.5, 37° C., shaking 960 rpm
From the text: The purpose of this assay was to assess the physical stability of the glucagon derivatives of the invention in aqueous solutions.
Low physical stability of a peptide may lead to amyloid fibril formation, which is observed as well-ordered, thread-like macromolecular structures in the sample, which eventually may lead to gel formation. This has traditionally been measured by visual inspection of the sample. However, that kind of measurement is very subjective and depending on the observer. Therefore, the application of a small molecule indicator probe is much more advantageous. Thioflavin T (ThT) is such a probe and has a distinct fluorescence signature when binding to fibrils [Naiki et al; Anal. Biochem. 1989 177 244-249; LeVine; Methods. Enzymol. 1999 309 274-284].
The time course for fibril formation can be described by a sigmoidal curve with the following expression [Nielsen et al; Biochemistry 2001 40 6036-6046]:
Here, as depicted in FIG. 1, F is the ThT fluorescence at the time t. The constant t0 is the time needed to reach 50% of maximum fluorescence. The two important parameters describing fibril formation are the lag-time calculated by t0−2τ and the apparent rate constant kapp 1/τ.
Samples were prepared freshly before each assay. Each sample composition is described in the legends. The pH of the sample was adjusted to the desired value using appropriate amounts of concentrated NaOH and HCl. Thioflavin T was added to the samples from a stock solution in H2O to a final concentration of 1 μM.
Sample aliquots of 200 μl (250 μM of the glucagon derivative/analogue in 10 mM HEPES buffer, pH 7.5) were placed in a 96 well microtiter plate (Packard OptiPlate™-96, white polystyrene). Usually, four or eight replica of each sample (corresponding to one test condition) were placed in one column of wells. The plate was sealed with Scotch Pad (Qiagen).
Incubation at given temperature, shaking and measurement of the ThT fluorescence emission were done in a Fluoroskan Ascent FL fluorescence plate reader (Thermo Labsystems). The temperature was set to 37° C. and the plate was incubated with orbital shaking adjusted to 960 rpm with an amplitude of 1 mm. Fluorescence measurement was done using excitation through a 444 nm filter and measurement of emission through a 485 nm filter.
Each run was initiated by incubating the plate at the assay temperature for 10 min. The plate was measured every 20 minutes for a desired period of time. Between each measurement, the plate was shaken and heated as described.
After completion of the ThT assay the four or eight replica of each sample was pooled and centrifuged at 20000 rpm for 30 minutes at 18° C. The supernatant was filtered through a 0.22 μm filter and an aliquot was transferred to a HPLC vial.
The concentration of peptide in the initial sample and in the filtered supernatant was determined by reverse phase HPLC using an appropriate standard as reference. The percentage fraction the concentration of the filtered sample constituted of the initial sample concentration was reported as the recovery.
The measurement points were saved in Microsoft Excel format for further processing and curve drawing and fitting was performed using GraphPad Prism. The background emission from ThT in the absence of fibrils was negligible. The data points were typically a mean of four or eight samples.
The data set may be fitted to Eq. (1).

[2] = target: T1, human GLP-1 receptor (Homo sapiens, UniProt P43220); assay: GLP-1 receptor potency, CRE luciferase reporter gene assay in BHK cells; assay type: cell-based; conditions: BHK cells expressing human GLP-1 receptor, read-out: EC50 GLP-1R
T1 construct: expressed in transfected cells; host or cells: BHK cells (parent BHKTS13), clone FCW467-12A/KZ10-1, with CRE luciferase
Experimental: The purpose of this example was to test the potency, of the glucagon derivatives of the invention, in vitro. The in vitro potency is the measure of human GLP-1 receptor or glucagon receptor activation, respectively, in a whole cell assay.
In vitro potency was determined by measuring the response of human GLP-1 or glucagon receptor, respectively, in a reporter gene assay. The assay was performed in a stably transfected BHK cell line that expresses either the human GLP-1 receptor or the human glucagon receptor and contains the DNA for the cAMP response element (CRE) coupled to a promoter and the gene for firefly luciferase (CRE luciferase). […] When assay incubation was completed, the luciferase substrate (luciferin) was added and the enzyme converted luciferin to oxyluciferin and produces bioluminescence. The luminescence was measured as the readout for the assay.
The cells used in this assay (clone FCW467-12A/KZ10-1) were BHK cells with BHKTS13 as a parent cell line. The cells were derived from a clone (FCW467-12A) that expresses the human GLP-1 receptor and were established by further transfection with
CRE luciferase to obtain the current clone.
The cells were cultured at 5% CO2 in DMEM medium with 10% FBS, 1×GlutaMAX, 1 mg/ml G418, 240 nM MTX (methotrexate) and 1% pen/strep (penicillin/streptomycin). They were aliquoted and stored in liquid nitrogen. Before each assay, an aliquot was taken up and washed three times in PBS before being suspended at the desired concentration in assay medium. For 96-well plates the suspension was made to give a final concentration of 5×10EE3 cells/well.
The following chemicals were used in the assay: Pluronic F-68 (10%) (Gibco 2404), ovalbumin (Sigma A5503), DMEM w/o phenol red (Gibco 11880-028), 1 M Hepes (Gibco 15630), Glutamax 100× (Gibco 35050) and steadylite plus (PerkinElmer 6016757).
Assay Medium consisted of DMEM w/o phenol red, 10 mM Hepes, lx GlutaMAX, 2% Ovalbumin and 0.2% Pluronic F-68.
Cell stocks were thawed in a 37° C. water bath. Cells were washed three times in PBS. The cells were counted and adjusted to 5×10EE3 cells/50 μl (1×10EE5 cells/ml) in Assay Medium. A 50 μl aliquot of cells was transferred to each well in the assay plate.
Stocks of the test compounds and reference compounds were diluted to a concentration of […] in Assay Medium. Compounds were diluted 10-fold to give the following concentrations: 2×10EE-6 M, 2×10EE-7 M, 2×10EE-8 M; 2×10EE-9 M, 2×10EE-10 M, 2×10EE-11 M, 2×10EE-12 M and 2×10EE-13 M. For each compound a blank assay medium control was also included.
A 50 μl aliquot of compound or blank was transferred from the dilution plate to the assay plate. Compounds were tested at the following final concentrations: 1×10EE-6 M, 1×10EE-7 M, 1×10EE-8 M; 1×10EE-9 M, 1×10EE-10 M, 1×10EE-11 M and 1×10EE-12 M and 1×10EE-13 M.
The assay plate was incubated for 3 h in a 5% CO2 incubator at 37° C. The assay plate was removed from the incubator and allowed to stand at room temperature for 15 min. A 100 μl aliquot of steadylite plus reagent was added to each well of the assay plate (reagent is light sensitive). Each assay plate was covered with aluminum foil to protect it from light and shaken for 30 min at room temperature. Each assay plate was read in a Perkin Elmer TopCount NXT instrument.
The data from the TopCount instrument was transferred to GraphPad Prism software. The software performed a non-linear regression (log(agonist) vs response-Variable slope (four parameter)). EC50 values were calculated by the software and reported in pM.

T1 sequence (P43220 24-463): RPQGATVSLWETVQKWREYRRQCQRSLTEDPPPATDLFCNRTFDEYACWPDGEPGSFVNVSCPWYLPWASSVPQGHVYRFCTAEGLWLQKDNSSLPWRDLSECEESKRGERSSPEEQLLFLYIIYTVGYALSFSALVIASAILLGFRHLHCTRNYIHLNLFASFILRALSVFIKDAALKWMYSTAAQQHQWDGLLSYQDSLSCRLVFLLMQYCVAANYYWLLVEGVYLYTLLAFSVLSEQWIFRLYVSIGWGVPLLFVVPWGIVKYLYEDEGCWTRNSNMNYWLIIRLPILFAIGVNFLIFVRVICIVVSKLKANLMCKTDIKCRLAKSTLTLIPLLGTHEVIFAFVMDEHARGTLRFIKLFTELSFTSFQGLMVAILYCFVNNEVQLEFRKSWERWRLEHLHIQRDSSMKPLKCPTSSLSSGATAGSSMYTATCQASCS

THT assay Lag time (Ex. 76) [1] [h]	EC50 [2] [pM]	SMILES
28	11	CC(C)C[C@H](NC(=O)[C@H](Cc1ccc(O)cc1)NC(=O)[C@H](CCCCN)NC(=O)[C@H](CO)NC(=O)[C@H](CC(C)C)NC(=O)[C@H](CC(=O)O)NC(=O)[C@H](CO)NC(=O)[C@@H](NC(=O)[C@H](Cc1ccccc1)NC(=O)[C@@H](NC(=O)CNC(=O)[C@H](CCC(N)=O)NC(=O)C1(NC(=O)[C@@H](N)Cc2c[nH]cn2)CC1)[C@@H](C)O)[C@@H](C)O)C(=O)N[C@@H](CCC(=O)O)C(=O)N[C@@H](CO)C(=O)N[C@@H](CCCNC(=N)N)C(=O)N[C@@H](CCCNC(=N)N)C(=O)N[C@@H](C)C(=O)N[C@@H](CCCNC(=N)N)C(=O)N[C@@H](CCC(=O)O)C(=O)N[C@@H](Cc1ccccc1)C(=O)N[C@H](C(=O)N[C@@H](CCC(N)=O)C(=O)N[C@@H](Cc1c[nH]c2ccccc12)C(=O)N[C@@H](CC(C)C)C(=O)N[C@@H](CC(C)C)C(=O)N[C@@H](CCCCNC(=O)CC[C@H](NC(=O)CC[C@H](NC(=O)COCCOCCNC(=O)COCCOCCNC(=O)CC[C@H](NC(=O)CCCCCCCCCCCCCCCCC(=O)O)C(=O)O)C(=O)O)C(=O)O)C(=O)N[C@H](C(N)=O)[C@@H](C)O)C(C)C [Example 50, N^ε28-[(4S)-4-carboxy-4-[[(4S)-4-carboxy-4-[[2-[2-[2-[[2-[2-[2-[[(4S)-4-carboxy-4-(17-carboxyheptadecanoylamino)butanoyl]amino]ethoxy]ethoxy]acetyl]amino]ethoxy]ethoxy]acetyl]amino]butanoyl]amino]butanoyl]-[Acpr2,Leu10,Glu15,Arg20,Glu21,Leu27,Lys28]-Glucagon amide] (H-H[Ac3c]QGTFTSDLSKYLESRRAREFVQWLLK([γGlu-γGlu-AEEA-AEEA-γGlu-C18 diacid])T-NH2; N-terminus assumed)
	5	CC(C)C[C@H](NC(=O)[C@H](CC(C)C)NC(=O)[C@H](Cc1c[nH]c2ccccc12)NC(=O)[C@H](CCC(N)=O)NC(=O)[C@@H](NC(=O)[C@H](Cc1ccccc1)NC(=O)[C@H](CC(=O)O)NC(=O)[C@H](CCCNC(=N)N)NC(=O)[C@H](C)NC(=O)[C@H](CCCNC(=N)N)NC(=O)[C@H](CCCNC(=N)N)NC(=O)[C@H](CO)NC(=O)[C@H](CC(=O)O)NC(=O)[C@H](CC(C)C)NC(=O)[C@H](Cc1ccc(O)cc1)NC(=O)[C@H](CCCCN)NC(=O)[C@H](CO)NC(=O)[C@H](CC(C)C)NC(=O)[C@H](CC(=O)O)NC(=O)[C@H](CO)NC(=O)[C@@H](NC(=O)[C@H](Cc1ccccc1)NC(=O)[C@@H](NC(=O)CNC(=O)[C@H](CCC(N)=O)NC(=O)C(C)(C)NC(=O)[C@@H](N)Cc1c[nH]cn1)[C@@H](C)O)[C@@H](C)O)C(C)C)C(=O)N[C@@H](CO)C(=O)N[C@@H](CCCCNC(=O)CC[C@H](NC(=O)CC[C@H](NC(=O)COCCOCCNC(=O)COCCOCCNC(=O)CC[C@H](NC(=O)CCCCCCCCCCCCCCCCC(=O)O)C(=O)O)C(=O)O)C(=O)O)C(N)=O [Example 5, N^ε29-[(4S)-4-carboxy-4-[[(4S)-4-carboxy-4-[[2-[2-[2-[[2-[2-[2-[[(4S)-4-carboxy-4-(17-carboxyheptadecanoylamino)butanoyl]amino]ethoxy]ethoxy]acetyl]amino]ethoxy]ethoxy]acetyl]amino]butanoyl]amino]butanoyl]-[Aib2,Leu10,Arg20,Leu27,Ser28,Lys29]-Glucagon amide] (H-H[Aib]QGTFTSDLSKYLDSRRARDFVQWLLSK([γGlu-γGlu-AEEA-AEEA-γGlu-C18 diacid])-NH2; N-terminus assumed)
	6	CC(C)C[C@H](NC(=O)[C@H](CC(C)C)NC(=O)[C@H](Cc1c[nH]c2ccccc12)NC(=O)[C@H](CCC(N)=O)NC(=O)[C@@H](NC(=O)[C@H](Cc1ccccc1)NC(=O)[C@H](CC(=O)O)NC(=O)[C@H](CCCCN)NC(=O)[C@H](C)NC(=O)[C@H](CCCNC(=N)N)NC(=O)[C@H](CCCNC(=N)N)NC(=O)[C@H](CCC(=O)O)NC(=O)[C@H](CC(=O)O)NC(=O)[C@H](CC(C)C)NC(=O)[C@H](Cc1ccc(O)cc1)NC(=O)[C@H](CCCCN)NC(=O)[C@H](CO)NC(=O)[C@H](CC(C)C)NC(=O)[C@H](CC(=O)O)NC(=O)[C@H](CO)NC(=O)[C@@H](NC(=O)[C@H](Cc1ccccc1)NC(=O)[C@@H](NC(=O)CNC(=O)[C@H](CCC(N)=O)NC(=O)C(C)(C)NC(=O)[C@@H](N)Cc1c[nH]cn1)[C@@H](C)O)[C@@H](C)O)C(C)C)C(=O)N[C@@H](CO)C(=O)N[C@@H](CCCCNC(=O)CC[C@H](NC(=O)CC[C@H](NC(=O)COCCOCCNC(=O)COCCOCCNC(=O)CC[C@H](NC(=O)CCCCCCCCCCCCCCCCC(=O)O)C(=O)O)C(=O)O)C(=O)O)C(N)=O [Example 13, N^ε29-[(4S)-4-carboxy-4-[[(4S)-4-carboxy-4-[[2-[2-[2-[[2-[2-[2-[[(4S)-4-carboxy-4-(17-carboxyheptadecanoylamino)butanoyl]amino]ethoxy]ethoxy]acetyl]amino]ethoxy]ethoxy]acetyl]amino]butanoyl]amino]butanoyl]-[Aib2,Leu10,Glu16,Lys20,Leu27,Ser28,Lys29]-Glucagon amide] (H-H[Aib]QGTFTSDLSKYLDERRAKDFVQWLLSK([γGlu-γGlu-AEEA-AEEA-γGlu-C18 diacid])-NH2; N-terminus assumed)
